target: T1, BRD4 proteins (Homo sapiens, UniProt O60885); assay: Degradation of BRD4 protein in MM.1S cell lines (Western blot densitometry); assay type: cell-based; settings: MM.1S cells, 10 μM, 24 hours
T1 construct: endogenous in cells; host or cells: MM.1S
Protocol: To confirm that the compounds (BRD4 degraders) of Preparation Examples I′ to IV′ reduce the amount of BRD4 proteins, experiments were performed using MM.1S cell lines, which are B cells derived from the blood of multiple myeloma patients.
Specifically, the MM.1S cells were cultured in RPMI-1640 medium supplemented with 10% fetal bovine serum and Penicillin/Streptomycin (100 U/mL), transferred to a 6-well plate, and after 24 hours, the BRD4 degraders were diluted in the culture medium and the cells were treated with 10 μM each. After treatment, the cells were incubated in a C02 incubator for 24 hours. Through protein immunoblotting (Western Blot), the degrading capacity of each compound against BRD4 proteins in cells was confirmed. After cell culture was completed according to the experimental conditions, the cells were collected and centrifuged at 1,800 rpm for 3 minutes. The cells in the precipitate were lysed with RIPA (25 mM Tris-HCl pH 7.6, 150 mM NaCl, 1% NP-40, 1% sodium deoxycholate, 0.1% SDS, 1× Protease Inhibitor Cocktail), 5× sample buffer was added, and then heated at 100° C. for 15 minutes. The prepared sample was electrophoresed with sodium dodecyl sulfate poly acrylamide gel electrophoresis (SDS-PAGE), and then the proteins in the gel were transferred to a PVDF membrane using Trans-Blot Turbo. The membrane was treated with a 5% bovine serum albumin (BSA) solution and blocked at room temperature for 2 hours, and then BRD4 and R-actin antibodies were diluted in the 5% BSA solution to react with the membrane at 4° C. overnight. After washed with PBST (0.5% Tween20) 5 times, horse radish peroxidase (HRP)-conjugated secondary antibodies were diluted in PBST to react at room temperature for 2 hours, and then washed again with a PBST solution 5 times. After enzyme-substrate reaction was carried out using a HRP substrate, a signal was measured with chemi-doc equipment, and the densitometry of a band corresponding to the BRD4 protein detected in the Preparation Example Compounds was quantitatively analyzed. The case when the degrading capacity of each BRD4 degrader was reduced by less than 40% is indicated as +, the case when the degrading capacity was reduced by 40% to 70% (exclusive of 70) is indicated as ++, the case when the degrading capacity was reduced by 70% or more is indicated as +++ in Tables 16 to 19 below. As shown in the following Tables, it was confirmed that the compounds of Preparation Examples I′ to IV′ according to the present invention have excellent degrading capacity.

SMILES	BRD4 degrading capacity (%)
Cc1sc2c(c1C)C(c1ccc(Cl)cc1)=N[C@@H](CC(=O)NCCCCC(=O)Nc1cccc(C#CCN)c1)c1nnc(C)n1-2.Cl [4-164′, (S)—N-(3-(3-aminoprop-1-yn-1-yl)phenyl)-5-(2-(4-(4-chlorophenyl)-2,3,9-trimethyl-6H-thieno[3,2-f][1,2,4]triazolo[4,3-a][1,4]diazepin-6-yl)acetamido)pentanamide hydrochloride]	++ (the degrading capacity was reduced by 40% to 70% (exclusive of 70))
Cc1sc2c(c1C)C(c1ccc(Cl)cc1)=N[C@@H](CC(=O)NCCCCCC(=O)Nc1ccc(C#CCN)cc1)c1nnc(C)n1-2.Cl [4-165′, (S)—N-(4-(3-aminoprop-1-yn-1-yl)phenyl)-6-(2-(4-(4-chlorophenyl)-2,3,9-trimethyl-6H-thieno[3,2-f][1,2,4]triazolo[4,3-a][1,4]diazepin-6-yl)acetamido)hexanamide hydrochloride]	+++ (the degrading capacity was reduced by 70% or more)
Cc1sc2c(c1C)C(c1ccc(Cl)cc1)=N[C@@H](CC(=O)NCCCNC(=O)c1ccc(C#CCN)o1)c1nnc(C)n1-2.Cl [4-166′]	+++ (the degrading capacity was reduced by 70% or more)
Cc1sc2c(c1C)C(c1ccc(Cl)cc1)=N[C@@H](CC(=O)NCCCCCNC(=O)c1ccc(C#CCN)o1)c1nnc(C)n1-2.Cl [4-167′, (S)-5-(3-aminoprop-1-yn-1-yl)-N-(5-(2-(4-(4-chlorophenyl)-2,3,9-trimethyl-6H-thieno[3,2-f][1,2,4]triazolo[4,3-a][1,4]diazepin-6-yl)acetamido)pentyl)furan-2-carboxamide hydrochloride]	++ (the degrading capacity was reduced by 40% to 70% (exclusive of 70))
Cc1sc2c(c1C)C(c1ccc(Cl)cc1)=N[C@@H](CC(=O)NCC#Cc1ccc(C#CCN)nc1)c1nnc(C)n1-2.Cl [4-179′, (S)—N-(3-(6-(3-aminoprop-1-yn-1-yl)pyridin-3-yl)prop-2-yn-1-yl)-2-(4-(4-chlorophenyl)-2,3,9-trimethyl-6H-thieno[3,2-f][1,2,4]triazolo[4,3-a][1,4]diazepin-6-yl)acetamide hydrochloride]	+ (the degrading capacity of each BRD4 degrader was reduced by less than 40%)
Cc1sc2c(c1C)C(c1ccc(Cl)cc1)=N[C@@H](CC(=O)NCC#Cc1ccc(C#CCON)s1)c1nnc(C)n1-2.Cl [4-223′, (S)—N-(3-(5-(3-(aminooxy)prop-1-yn-1-yl)thiophen-2-yl)prop-2-yn-1-yl)-2-(4-(4-chlorophenyl)-2,3,9-trimethyl-6H-thieno[3,2-f][1,2,4]triazolo[4,3-a][1,4]diazepin-6-yl)acetamide hydrochloride]	++ (the degrading capacity was reduced by 40% to 70% (exclusive of 70))
Cc1sc2c(c1C)C(c1ccc(Cl)cc1)=N[C@@H](CC(=O)NCCCCCCCCCNC(=O)c1ccc(C#CCN)o1)c1nnc(C)n1-2.Cl [4-225′, (S)-5-(3-aminoprop-1-yn-1-yl)-N-(9-(2-(4-(4-chlorophenyl)-2,3,9-trimethyl-6H-thieno[3,2-f][1,2,4]triazolo[4,3-a][1,4]diazepin-6-yl)acetamido)nonyl)furan-2-carboxamide hydrochloride]	+++ (the degrading capacity was reduced by 70% or more)
Cc1sc2c(c1C)C(c1ccc(Cl)cc1)=N[C@@H](CC(=O)N1CCN(c3ccc(C#CCN)cc3)CC1)c1nnc(C)n1-2.Cl [4-226′, (S)-1-(4-(4-(3-aminoprop-1-yn-1-yl)phenyl)piperazin-1-yl)-2-(4-(4-chlorophenyl)-2,3,9-trimethyl-6H-thieno[3,2-f][1,2,4]triazolo[4,3-a][1,4]diazepin-6-yl)ethan-1-one hydrochloride]	+++ (the degrading capacity was reduced by 70% or more)
Cc1sc2c(c1C)C(c1ccc(Cl)cc1)=N[C@@H](CC(=O)N1CCN(C(=O)c3ccc(C#CCN)o3)CC1)c1nnc(C)n1-2.Cl [4-227′, (S)-1-(4-(5-(3-aminoprop-1-yn-1-yl)furan-2-carbonyl)piperazin-1-yl)-2-(4-(4-chlorophenyl)-2,3,9-trimethyl-6H-thieno[3,2-f][1,2,4]triazolo[4,3-a][1,4]diazepin-6-yl)ethan-1-one hydrochloride]	++ (the degrading capacity was reduced by 40% to 70% (exclusive of 70))
COC(=O)c1ccc(NC(=O)CCCNC(=O)C[C@@H]2N=C(c3ccc(Cl)cc3)c3c(sc(C)c3C)-n3c(C)nnc32)cc1C#CCN.Cl [4-228′]	+++ (the degrading capacity was reduced by 70% or more)
Cc1sc2c(c1C)C(c1ccc(Cl)cc1)=N[C@@H](CC(=O)NCCCCCCCCNC(=O)c1ccc(C#CCN)o1)c1nnc(C)n1-2.Cl [4-235′]	++ (the degrading capacity was reduced by 40% to 70% (exclusive of 70))
CCOC(=O)c1ccc(NC(=O)CCCNC(=O)C[C@@H]2N=C(c3ccc(Cl)cc3)c3c(sc(C)c3C)-n3c(C)nnc32)cc1C#CCN.Cl [5-1′, ethyl (S)-2-(3-aminoprop-1-yn-1-yl)-4-(4-(2-(4-(4-chlorophenyl)-2,3,9-trimethyl-6H-thieno[3,2-f][1,2,4]triazolo[4,3-a][1,4]diazepin-6-yl)acetamido)butanamido)benzoate hydrochloride]	+++ (the degrading capacity was reduced by 70% or more)
Cc1sc2c(c1C)C(c1ccc(Cl)cc1)=N[C@@H](CC(=O)NCCCC(=O)Nc1ccc(C(=O)OC(C)C)c(C#CCN)c1)c1nnc(C)n1-2.Cl [5-2′, isopropyl (S)-2-(3-aminoprop-1-yn-1-yl)-4-(4-(2-(4-(4-chlorophenyl)-2,3,9-trimethyl-6H-thieno[3,2-f][1,2,4]triazolo[4,3-a][1,4]diazepin-6-yl)acetamido)butanamido)benzoate hydrochloride]	++ (the degrading capacity was reduced by 40% to 70% (exclusive of 70))
COC(=O)c1ccc(NC(=O)CCNC(=O)C[C@@H]2N=C(c3ccc(Cl)cc3)c3c(sc(C)c3C)-n3c(C)nnc32)cc1C#CCN.Cl [5-4′, methyl (S)-2-(3-aminoprop-1-yn-1-yl)-4-(3-(2-(4-(4-chlorophenyl)-2,3,9-trimethyl-6H-thieno[3,2-f][1,2,4]triazolo[4,3-a][1,4]diazepin-6-yl)acetamido)propanamido)benzoate hydrochloride]	++ (the degrading capacity was reduced by 40% to 70% (exclusive of 70))
COC(=O)c1ccc(NC(=O)CCCCNC(=O)C[C@@H]2N=C(c3ccc(Cl)cc3)c3c(sc(C)c3C)-n3c(C)nnc32)cc1C#CCN.Cl [5-5′, methyl (S)-2-(3-aminoprop-1-yn-1-yl)-4-(5-(2-(4-(4-chlorophenyl)-2,3,9-trimethyl-6H-thieno[3,2-f][1,2,4]triazolo[4,3-a][1,4]diazepin-6-yl)acetamido)pentanamido)benzoate hydrochloride]	++ (the degrading capacity was reduced by 40% to 70% (exclusive of 70))
COC(=O)c1ccc(NC(=O)CCCCCNC(=O)C[C@@H]2N=C(c3ccc(Cl)cc3)c3c(sc(C)c3C)-n3c(C)nnc32)cc1C#CCN.Cl [5-6′, methyl (S)-2-(3-aminoprop-1-yn-1-yl)-4-(6-(2-(4-(4-chlorophenyl)-2,3,9-trimethyl-6H-thieno[3,2-f][1,2,4]triazolo[4,3-a][1,4]diazepin-6-yl)acetamido)hexanamido)benzoate hydrochloride]	++ (the degrading capacity was reduced by 40% to 70% (exclusive of 70))
COC(=O)c1ccc(N2CCN(C(=O)C[C@@H]3N=C(c4ccc(Cl)cc4)c4c(sc(C)c4C)-n4c(C)nnc43)CC2)cc1C#CCN.Cl [5-7′, methyl (S)-2-(3-aminoprop-1-yn-1-yl)-4-(4-(2-(4-(4-chlorophenyl)-2,3,9-trimethyl-6H-thieno[3,2-f][1,2,4]triazolo[4,3-a][1,4]diazepin-6-yl)acetyl)piperazin-1-yl)benzoate hydrochloride]	+ (the degrading capacity of each BRD4 degrader was reduced by less than 40%)
Cc1sc2c(c1C)C(c1ccc(Cl)cc1)=N[C@@H](CC(=O)NCCCC(=O)Nc1ccc(C#CCN)c(CO)c1)c1nnc(C)n1-2.Cl [5-8′, (S)—N-(4-(3-aminoprop-1-yn-1-yl)-3-(hydroxymethyl)phenyl)-4-(2-(4-(4-chlorophenyl)-2,3,9-trimethyl-6H-thieno[3,2-f][1,2,4]triazolo[4,3-a][1,4]diazepin-6-yl)acetamido)butanamide hydrochloride]	++ (the degrading capacity was reduced by 40% to 70% (exclusive of 70))

Reference: patent publication US20240425517A1, “NOVEL COMPOUND FOR DEGRADATION OF TARGET PROTEIN OR POLYPEPTIDE BY POLYUBIQUITINATION” (PRAZER THERAPEUTICS INC., priority 2021, published 2024)
